Earlier results on one compound are cited in US6015805A, “17β-nitro-11β-arylisteroids and their derivatives having agonist or antagonist hormonal properties” (Research Triangle Research North Carolina, priority 1999, dated 2000).

This data set deals with glucocorticoid receptor. To be noted: in words; cited from earlier work.

Each structure is given as a SMILES string.

For `CC#C[C@]1(O)CC[C@H]2[C@@H]3CCC4=CC(=O)CCC4=C3[C@@H](c3ccc(N(C)C)cc3)C[C@@]21C` [mifepristone], the “glucocorticoid or antiglucocorticoid activity as side-effect” value is “significant side-effect”.
